Test results reported in ChEMBL document CHEMBL5465560, “Selectivity Literature for EUbOPEN Chemogenomic Library” (2024).

How the values were obtained:
Ephrin type-A receptor 4 [1] = biological target: T1, Ephrin type-A receptor 4 (Homo sapiens, UniProt P54764); experiment: Selectivity interaction (KinomeScan (DiscoverX)) EUB0001049a EPHA4; conditions: at 1 µM
[2] = biological target: Tyrosine-protein kinase JAK2 (Homo sapiens, UniProt O60674); experiment: Selectivity interaction (KinomeScan (DiscoverX)) EUB0000229b JAK2; conditions: at 10 µM
Ephrin type-A receptor 4 [3] = biological target: T1, Ephrin type-A receptor 4; experiment: Selectivity interaction (KinomeScan (DiscoverX)) EUB0000229b EPHA4; conditions: at 10 µM
[4] = biological target: T2, Tyrosine-protein kinase Tec (Homo sapiens) (UniProt P42680); experiment: Selectivity interaction (KinomeScan (DiscoverX)) EUB0001079a TEC; conditions: at 1 µM
T2 sequence (whole entry): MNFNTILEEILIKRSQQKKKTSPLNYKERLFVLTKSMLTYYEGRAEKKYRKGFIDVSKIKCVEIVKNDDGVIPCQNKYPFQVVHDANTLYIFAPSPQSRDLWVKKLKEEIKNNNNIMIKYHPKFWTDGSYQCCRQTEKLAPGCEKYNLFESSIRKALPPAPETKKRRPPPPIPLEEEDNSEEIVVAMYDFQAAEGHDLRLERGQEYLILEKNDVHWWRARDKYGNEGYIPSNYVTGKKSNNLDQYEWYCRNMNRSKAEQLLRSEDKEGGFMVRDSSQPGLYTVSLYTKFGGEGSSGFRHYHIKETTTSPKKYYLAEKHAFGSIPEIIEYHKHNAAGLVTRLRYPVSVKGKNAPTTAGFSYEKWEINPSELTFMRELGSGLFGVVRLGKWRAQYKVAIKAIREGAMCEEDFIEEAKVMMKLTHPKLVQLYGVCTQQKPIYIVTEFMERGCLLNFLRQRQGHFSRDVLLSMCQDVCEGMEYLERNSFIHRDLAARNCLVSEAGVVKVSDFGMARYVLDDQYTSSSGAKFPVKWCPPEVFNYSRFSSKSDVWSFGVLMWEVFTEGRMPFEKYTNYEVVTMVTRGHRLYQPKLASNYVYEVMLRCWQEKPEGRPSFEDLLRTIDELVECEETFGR

Progesterone receptor = Progesterone receptor (Homo sapiens, UniProt P06401); experiment: Selectivity interaction (Progesteron receptor agonist/antagonist FRET assay, human recombinant) EUB0000877a PGR
[5] = biological target: T3, Ephrin type-A receptor 8 (Homo sapiens) (UniProt P29322); conditions: at 10 µM
T3 sequence (whole entry): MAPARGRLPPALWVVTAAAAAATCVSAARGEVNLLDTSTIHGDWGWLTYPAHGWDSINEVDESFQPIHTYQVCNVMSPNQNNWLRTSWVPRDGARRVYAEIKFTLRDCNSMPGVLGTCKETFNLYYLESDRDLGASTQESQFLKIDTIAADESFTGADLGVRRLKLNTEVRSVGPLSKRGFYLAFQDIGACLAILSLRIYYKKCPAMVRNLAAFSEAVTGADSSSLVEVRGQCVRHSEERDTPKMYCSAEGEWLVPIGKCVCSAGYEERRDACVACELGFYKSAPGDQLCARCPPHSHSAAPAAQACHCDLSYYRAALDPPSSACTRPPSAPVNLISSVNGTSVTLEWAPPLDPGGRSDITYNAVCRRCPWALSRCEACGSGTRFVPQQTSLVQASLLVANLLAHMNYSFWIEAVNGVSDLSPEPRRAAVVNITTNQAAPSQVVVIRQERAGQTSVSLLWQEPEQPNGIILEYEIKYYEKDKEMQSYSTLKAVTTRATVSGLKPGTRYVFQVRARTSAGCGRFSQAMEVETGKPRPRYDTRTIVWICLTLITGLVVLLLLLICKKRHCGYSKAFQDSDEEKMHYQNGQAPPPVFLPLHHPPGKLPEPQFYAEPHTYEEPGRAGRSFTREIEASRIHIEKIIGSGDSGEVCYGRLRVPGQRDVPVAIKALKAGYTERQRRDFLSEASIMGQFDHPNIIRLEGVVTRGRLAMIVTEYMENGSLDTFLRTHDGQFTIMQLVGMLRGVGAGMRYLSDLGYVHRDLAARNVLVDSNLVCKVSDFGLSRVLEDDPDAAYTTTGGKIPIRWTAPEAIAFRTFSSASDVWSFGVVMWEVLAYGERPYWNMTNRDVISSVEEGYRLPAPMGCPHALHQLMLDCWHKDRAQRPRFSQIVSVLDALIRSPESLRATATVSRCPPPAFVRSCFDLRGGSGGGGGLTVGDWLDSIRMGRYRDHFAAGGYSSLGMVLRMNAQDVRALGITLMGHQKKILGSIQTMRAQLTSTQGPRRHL

[6] = biological target: Serine/threonine-protein kinase PAK 6 (Homo sapiens) (UniProt Q9NQU5); conditions: at 10 µM
[7] = biological target: T4, Serine/threonine-protein kinase DCLK1 (Homo sapiens) (UniProt O15075); experiment: Selectivity interaction (KinomeScan (DiscoverX)) EUB0000618a DCLK1; conditions: at 10 µM
T4 sequence (whole entry): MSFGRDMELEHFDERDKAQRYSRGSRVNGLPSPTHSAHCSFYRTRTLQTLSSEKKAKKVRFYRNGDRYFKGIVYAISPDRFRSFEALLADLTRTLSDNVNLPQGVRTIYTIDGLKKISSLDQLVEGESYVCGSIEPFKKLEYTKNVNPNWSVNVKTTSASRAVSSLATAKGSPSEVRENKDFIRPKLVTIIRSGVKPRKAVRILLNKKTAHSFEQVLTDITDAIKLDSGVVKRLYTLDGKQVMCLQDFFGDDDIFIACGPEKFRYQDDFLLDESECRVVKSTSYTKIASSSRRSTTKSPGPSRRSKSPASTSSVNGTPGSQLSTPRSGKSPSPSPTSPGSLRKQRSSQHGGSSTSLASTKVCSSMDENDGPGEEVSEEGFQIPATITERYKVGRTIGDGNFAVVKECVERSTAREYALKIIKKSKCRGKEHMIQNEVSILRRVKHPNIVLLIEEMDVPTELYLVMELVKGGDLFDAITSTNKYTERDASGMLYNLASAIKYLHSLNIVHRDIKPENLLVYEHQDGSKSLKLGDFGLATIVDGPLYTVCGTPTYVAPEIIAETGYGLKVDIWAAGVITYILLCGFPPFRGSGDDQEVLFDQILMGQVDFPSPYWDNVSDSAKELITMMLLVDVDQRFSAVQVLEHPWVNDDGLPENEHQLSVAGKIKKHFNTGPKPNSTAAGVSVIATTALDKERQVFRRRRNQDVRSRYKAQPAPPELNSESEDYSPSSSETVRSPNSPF

[8] = biological target: Serine/threonine-protein kinase SIK1 (Homo sapiens) (UniProt P57059); conditions: at 10 µM
[9] = biological target: Serine/threonine-protein kinase PAK 6 (Homo sapiens) (UniProt Q9NQU5); experiment: Selectivity interaction (Upstate Kinase Profiler service (Millipore)) EUB0000056c PAK6; conditions: at 1 µM
[10] = biological target: Serine/threonine-protein kinase VRK2 (Homo sapiens) (UniProt Q86Y07); experiment: Selectivity interaction (KinomeScan (DiscoverX)) EUB0000655a VRK2; conditions: at 10 µM
[11] = biological target: Serine/threonine-protein kinase PLK2 (Homo sapiens, UniProt Q9NYY3); experiment: Selectivity interaction (KinomeScan (DiscoverX)) EUB0000607a PLK2; conditions: at 10 µM
Sequence of Serine/threonine-protein kinase PLK2 (Q9NYY3 whole entry, looked up): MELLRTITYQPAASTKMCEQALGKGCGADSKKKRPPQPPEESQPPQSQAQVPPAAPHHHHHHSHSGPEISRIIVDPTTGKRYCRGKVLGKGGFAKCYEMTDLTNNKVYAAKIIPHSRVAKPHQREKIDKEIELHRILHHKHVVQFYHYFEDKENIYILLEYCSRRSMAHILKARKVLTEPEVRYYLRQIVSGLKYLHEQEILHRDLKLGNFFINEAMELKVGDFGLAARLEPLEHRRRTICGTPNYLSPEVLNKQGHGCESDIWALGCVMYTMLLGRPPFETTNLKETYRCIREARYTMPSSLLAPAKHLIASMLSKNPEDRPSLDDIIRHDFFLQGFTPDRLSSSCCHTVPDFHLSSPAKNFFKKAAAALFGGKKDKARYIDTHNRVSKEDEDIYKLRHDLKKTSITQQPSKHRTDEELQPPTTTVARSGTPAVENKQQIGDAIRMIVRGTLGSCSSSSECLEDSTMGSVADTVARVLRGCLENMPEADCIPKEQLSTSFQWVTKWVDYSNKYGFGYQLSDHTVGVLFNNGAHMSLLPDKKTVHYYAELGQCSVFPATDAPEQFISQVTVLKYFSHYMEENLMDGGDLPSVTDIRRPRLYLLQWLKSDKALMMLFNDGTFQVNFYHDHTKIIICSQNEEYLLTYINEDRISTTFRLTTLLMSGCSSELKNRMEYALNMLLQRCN

T1 sequence (P54764 whole entry): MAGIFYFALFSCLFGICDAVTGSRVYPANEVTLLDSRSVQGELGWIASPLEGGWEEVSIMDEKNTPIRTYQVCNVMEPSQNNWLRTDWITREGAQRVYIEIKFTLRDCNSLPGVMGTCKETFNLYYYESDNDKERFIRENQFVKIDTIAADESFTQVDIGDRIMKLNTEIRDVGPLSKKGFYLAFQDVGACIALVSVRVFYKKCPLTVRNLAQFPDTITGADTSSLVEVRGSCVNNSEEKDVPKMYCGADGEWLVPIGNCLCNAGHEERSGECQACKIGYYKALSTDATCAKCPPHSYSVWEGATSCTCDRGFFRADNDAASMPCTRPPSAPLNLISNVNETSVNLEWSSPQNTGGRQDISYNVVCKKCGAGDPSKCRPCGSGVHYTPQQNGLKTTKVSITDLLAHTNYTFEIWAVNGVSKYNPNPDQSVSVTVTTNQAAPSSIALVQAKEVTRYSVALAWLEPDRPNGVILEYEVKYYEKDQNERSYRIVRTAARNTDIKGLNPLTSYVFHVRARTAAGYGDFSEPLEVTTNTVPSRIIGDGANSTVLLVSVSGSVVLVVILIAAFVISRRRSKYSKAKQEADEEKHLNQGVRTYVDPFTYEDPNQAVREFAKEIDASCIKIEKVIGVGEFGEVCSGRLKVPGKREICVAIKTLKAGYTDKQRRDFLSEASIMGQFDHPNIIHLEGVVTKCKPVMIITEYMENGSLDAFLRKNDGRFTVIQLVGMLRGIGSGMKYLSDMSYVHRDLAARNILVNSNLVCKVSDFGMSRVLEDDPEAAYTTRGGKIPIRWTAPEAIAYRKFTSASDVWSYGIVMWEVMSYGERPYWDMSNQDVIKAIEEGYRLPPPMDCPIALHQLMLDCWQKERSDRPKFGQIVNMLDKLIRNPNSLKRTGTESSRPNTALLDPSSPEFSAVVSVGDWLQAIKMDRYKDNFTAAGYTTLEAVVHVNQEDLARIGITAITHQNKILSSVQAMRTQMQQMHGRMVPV
Sequence of Serine/threonine-protein kinase PAK 6 (Homo sapiens) (Q9NQU5 whole entry, looked up): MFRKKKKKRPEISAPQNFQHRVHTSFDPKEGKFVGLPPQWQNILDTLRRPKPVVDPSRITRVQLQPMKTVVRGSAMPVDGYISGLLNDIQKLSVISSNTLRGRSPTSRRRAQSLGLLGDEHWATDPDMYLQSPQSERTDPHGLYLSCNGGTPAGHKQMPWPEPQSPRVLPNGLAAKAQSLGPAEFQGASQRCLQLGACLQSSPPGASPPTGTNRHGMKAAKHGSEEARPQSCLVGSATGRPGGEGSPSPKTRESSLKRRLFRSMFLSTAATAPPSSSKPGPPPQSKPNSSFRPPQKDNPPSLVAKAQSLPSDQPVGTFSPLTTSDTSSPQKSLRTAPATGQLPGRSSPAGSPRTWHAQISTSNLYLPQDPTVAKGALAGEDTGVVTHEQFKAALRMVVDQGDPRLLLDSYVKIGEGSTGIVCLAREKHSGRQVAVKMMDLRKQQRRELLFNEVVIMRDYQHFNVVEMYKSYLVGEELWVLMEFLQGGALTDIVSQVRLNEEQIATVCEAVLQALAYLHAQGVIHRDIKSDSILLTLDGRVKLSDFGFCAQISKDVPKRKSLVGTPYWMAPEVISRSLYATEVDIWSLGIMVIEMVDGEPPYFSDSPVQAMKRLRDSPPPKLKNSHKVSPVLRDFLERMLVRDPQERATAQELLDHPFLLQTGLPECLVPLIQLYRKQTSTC
Sequence of Serine/threonine-protein kinase SIK1 (Homo sapiens) (P57059 whole entry): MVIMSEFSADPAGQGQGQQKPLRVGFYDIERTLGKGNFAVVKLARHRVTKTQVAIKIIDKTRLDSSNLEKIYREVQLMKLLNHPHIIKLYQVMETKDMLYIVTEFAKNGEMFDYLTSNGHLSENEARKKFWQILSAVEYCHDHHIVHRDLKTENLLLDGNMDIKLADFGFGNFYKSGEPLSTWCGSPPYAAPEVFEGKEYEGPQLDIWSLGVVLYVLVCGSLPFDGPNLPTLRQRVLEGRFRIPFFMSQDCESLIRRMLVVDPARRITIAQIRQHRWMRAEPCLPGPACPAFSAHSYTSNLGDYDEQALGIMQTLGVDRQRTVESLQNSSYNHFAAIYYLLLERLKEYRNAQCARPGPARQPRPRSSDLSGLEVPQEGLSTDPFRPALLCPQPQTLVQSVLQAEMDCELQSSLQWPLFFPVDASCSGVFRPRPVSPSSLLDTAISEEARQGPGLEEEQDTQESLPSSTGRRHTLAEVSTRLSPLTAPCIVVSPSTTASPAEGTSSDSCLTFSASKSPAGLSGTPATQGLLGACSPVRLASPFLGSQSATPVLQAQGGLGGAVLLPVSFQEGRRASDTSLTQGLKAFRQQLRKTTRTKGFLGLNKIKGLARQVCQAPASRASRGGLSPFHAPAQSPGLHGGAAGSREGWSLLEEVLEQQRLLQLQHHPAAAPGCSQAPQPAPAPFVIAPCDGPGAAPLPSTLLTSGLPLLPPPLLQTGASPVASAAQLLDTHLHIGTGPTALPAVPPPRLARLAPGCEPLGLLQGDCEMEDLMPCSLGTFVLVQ
Sequence of Serine/threonine-protein kinase VRK2 (Homo sapiens) (Q86Y07 whole entry): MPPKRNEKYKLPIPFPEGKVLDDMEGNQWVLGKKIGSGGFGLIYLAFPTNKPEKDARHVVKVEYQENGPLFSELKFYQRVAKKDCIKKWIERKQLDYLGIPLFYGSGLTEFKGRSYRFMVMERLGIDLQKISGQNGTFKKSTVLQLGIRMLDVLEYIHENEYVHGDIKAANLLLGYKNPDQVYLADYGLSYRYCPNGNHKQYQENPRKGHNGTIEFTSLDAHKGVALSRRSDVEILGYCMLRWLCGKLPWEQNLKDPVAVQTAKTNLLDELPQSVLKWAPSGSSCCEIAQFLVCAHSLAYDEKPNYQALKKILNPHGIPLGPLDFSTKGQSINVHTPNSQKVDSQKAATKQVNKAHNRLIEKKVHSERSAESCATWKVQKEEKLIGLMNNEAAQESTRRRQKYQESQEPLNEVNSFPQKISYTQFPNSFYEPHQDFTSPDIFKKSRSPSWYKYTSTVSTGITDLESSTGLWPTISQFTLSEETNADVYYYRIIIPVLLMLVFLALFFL
Sequence of Progesterone receptor (P06401 whole entry): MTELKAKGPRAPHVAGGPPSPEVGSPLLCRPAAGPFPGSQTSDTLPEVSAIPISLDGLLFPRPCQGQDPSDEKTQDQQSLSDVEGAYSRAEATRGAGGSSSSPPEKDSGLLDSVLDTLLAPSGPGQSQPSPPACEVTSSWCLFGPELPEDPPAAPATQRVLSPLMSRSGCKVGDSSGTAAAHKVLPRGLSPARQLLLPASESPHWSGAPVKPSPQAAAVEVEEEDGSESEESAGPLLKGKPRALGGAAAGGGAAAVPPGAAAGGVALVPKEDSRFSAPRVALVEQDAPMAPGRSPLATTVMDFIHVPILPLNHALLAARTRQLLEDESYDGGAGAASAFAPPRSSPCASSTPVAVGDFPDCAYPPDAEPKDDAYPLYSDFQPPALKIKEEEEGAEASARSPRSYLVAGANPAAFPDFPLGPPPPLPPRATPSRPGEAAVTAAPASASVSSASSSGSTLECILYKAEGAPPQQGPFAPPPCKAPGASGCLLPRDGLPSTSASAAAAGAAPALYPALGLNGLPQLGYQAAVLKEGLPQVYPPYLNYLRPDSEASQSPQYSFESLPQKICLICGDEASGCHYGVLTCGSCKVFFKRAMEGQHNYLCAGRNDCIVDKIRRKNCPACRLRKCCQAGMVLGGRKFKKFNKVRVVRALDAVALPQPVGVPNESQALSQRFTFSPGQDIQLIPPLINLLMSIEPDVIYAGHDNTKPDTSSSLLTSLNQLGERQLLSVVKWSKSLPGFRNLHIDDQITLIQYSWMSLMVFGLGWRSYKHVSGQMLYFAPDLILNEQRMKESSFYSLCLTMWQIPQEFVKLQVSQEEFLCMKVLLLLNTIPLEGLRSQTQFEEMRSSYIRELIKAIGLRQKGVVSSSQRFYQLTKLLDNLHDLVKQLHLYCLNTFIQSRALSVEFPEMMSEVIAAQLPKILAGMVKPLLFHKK

COc1cc(Nc2nc(C)cc(-c3cnn4nc(OC)ccc34)n2)cc(C(F)(F)F)c1
% of control (Ephrin type-A receptor 4 [1]): 100%

COc1cc(N(C)c2ccnc3ccc(C(F)(F)F)cc23)cc(OC)c1OC
% binding [2]: 97%
% binding (Ephrin type-A receptor 4 [3]): 100%

Nc1cnc(N2CCc3cc(S(=O)(=O)Nc4c(F)cc(Cl)cc4F)cc(N4CCCC4=O)c32)nc1 [TP-020n]
% of control [4]: 99%

CCC(=O)N1CC[C@H](Nc2ncnc3c2CN(c2cnc(OC)c(C(F)(F)F)c2)CC3)C1 [LENIOLISIB]
IC50 (Progesterone receptor): > 30 µM

CCN(CC)CCCCNc1ncc2cc(-c3cc(OC)cc(OC)c3)c(NC(=O)NC(C)(C)C)nc2n1
% of control [5]: 100%
% of control [6]: 100%

O[C@H]1CC[C@H](Nc2ncc3nc(Nc4c(F)cc(F)cc4F)n([C@H]4CCOC4)c3n2)CC1
% of control [7]: 81%

Cc1cc([C@@H](C)Nc2ccccc2C(=O)O)c2nc(N3CCOCC3)cc(=O)n2c1 [AZD-6482]
% of control [8]: 100%

Cc1ccc(-c2ccc3c(ccc4sc5c(c43)NC[C@@H](C)NC5=O)n2)cn1
% of inhibition [9]: 4%

CN(C)CCOc1ccc(-c2nc(-c3ccncc3)c(-c3ccc4c(c3)CC/C4=N\O)[nH]2)cc1
% of control [10]: 94%

CNC(=O)Nc1ccc(-c2nc(N3CC4CCC(C3)O4)c3cnn(C4CCC5(CC4)OCCO5)c3n2)cc1
% of control [11]: 100%
